Our source for the IC50 and Emax values is patent US20260317329A1, “DRUG LINKERS AND ANTIBODY CONJUGATES THEREOF” (Ambrx, Inc., priority 2022, published 2026).

Holding throughout (format): cell-based
Assay [1] has as its system 786-O (CD70 positive) cells. Briefly: In vitro cytotoxicity in CD70 positive 786-O cells (CellTiter-Glo 2.0, 4 days). Particulars: Homo sapiens; for Emax at 0.025 µM: maximal killing at 25 nM. The procedure:
(§1) Small molecule duocarmycin analogs (compounds 4, 13, 15, 17 and 38) and anti-CD70 ADCs (anti-CD70-12, anti-CD70-14, anti-CD70-16 and anti-CD70-18) were evaluated for cytotoxicity. Briefly, 786-0 (CD70 positive) cells were seeded into 96-well clear bottom white plate at 1,000 cells/well and incubated overnight in a 37° C. and 5% CO2 incubator. NCI-H929 (CD70 negative) cells were seeded 30,000 cells/well just before the time of treatment of test articles. The serially diluted small molecule drugs or anti-CD70 ADCs were added to the wells and the plates were incubated for 4 days in a 37° C. and 5% CO2 incubator. At the end of incubation, CellTiter-Glo2.0 Reagent (Promega, Madison, WI) was added to the room temperature equilibrated plates and luminescence was measured in a SpectraMax M5E plate reader. The relative viability was calculated as a percentage of untreated cells. The half-maximal inhibitory concentration (IC50) was determined by a nonlinear 4-parameter dose-response curve fitting using GraphPad Prism (GraphPad Software, San Diego, CA). The maximal killing (Emax) was determined by subtracting the % viability at the indicated dose from 100%.

Assay [2] deals with SNU449 (GPC3 negative) cells. Briefly: In vitro cytotoxicity in GPC3 negative SNU449 cells (CellTiter-Glo 2.0, 3 days). Particulars: Homo sapiens, SNU-449, 72 h; for Emax at 0.03 µM: maximal killing at 30 nM. How it is done:
(§2) Anti-GPC3 ADCs were prepared via conjugation of GPC3 clone 1 mAb containing non-natural amino acid pAF with each of compounds 12, 14, 16 and 18. The corresponding ADCs (hereinafter, anti-GPC3-12, anti-GPC3-14, anti-GPC3-16 and anti-GPC3-18 respectively) and small molecule duocarmycin analogs (compounds 15 and 17) were evaluated for cytotoxicity. Briefly, HepG2 and SNU449 cells were seeded into 96-well white opaque plate at 3,000 cells/well and incubated overnight in a 37° C. and 5% CO2 incubator. The serially diluted small molecule drugs or anti-GPC3 ADCs were added to the wells and the plates were incubated for 3 days in a 37° C. and 5% CO2 incubator. At the end of incubation, CellTiter-Glo2.0 Reagent (Promega, Madison, WI) was added to the room temperature equilibrated plates and luminescence was measured in a SpectraMax M5E plate reader. The relative viability was calculated as a percentage of untreated cells. The half-maximal inhibitory concentration (IC50) was determined by a nonlinear 4-parameter dose-response curve fitting using GraphPad Prism (GraphPad Software, San Diego, CA). The maximal killing (Emax) was determined by subtracting the % viability at the indicated dose from 100%.

The test system of assay [3] is HepG2 (GPC3 positive) cells. The experiment in a line: In vitro cytotoxicity in GPC3 positive HepG2 cells (CellTiter-Glo 2.0, 3 days). To be noted: Homo sapiens, 72 h; for Emax at 0.03 µM: maximal killing at 30 nM. How it is done: as §2
Background: In ATP-based viability assays light output follows the ATP content of the culture.

The test system of assay [4] is NCI-H929 (CD70 negative) cells. The experiment in a line: In vitro cytotoxicity in CD70 negative NCI-H929 cells (CellTiter-Glo 2.0, 4 days). To be noted: Homo sapiens, 96 h; for Emax at 0.025 µM: maximal killing at 25 nM. How it is done: as §1
Setting [5] is: 786-0, 96 h, 786-O (CD70 Positive), 4 days.

The term IC50 denotes the concentration needed to halve the response being measured. Read a high IC50 as weaker potency. Turning to `COC(=O)c1cc2c3c(cc(O)c2[nH]1)N(C(=O)c1cc2cc(OC)c(OC)c(OC)c2[nH]1)C[C@H]3CCl` [Compound 39, (S)-seco-duocarmycin SA, reference compound], the IC50 in assay [1] (786-0 (CD70-positive), first test of benchmark free drug and ADC) came out at 0.065 nM.

For orientation: Emax means the size of the effect at its maximum, as opposed to the concentration needed. With `COc1cc2cc(C(=O)N3C[C@@H](CCl)c4c3cc(O)c3[nH]c(C(=O)N5CCc6cc(OCCN7CCOCC7)ccc65)cc43)[nH]c2c(OC)c1OC` [Compound 17], the concentration for half-maximal inhibition (IC50) in assay [2] was 0.245 nM; in assay [1] (setting [5]) it was 0.0179 nM; in assay [3], 0.217 nM; in assay [4] it was 2.59 nM. Besides, the Emax at 0.03 µM is 94.2% in assay [2] and 97.6% in assay [3]. Also, the Emax at 0.025 µM stood at 99.3% in assay [1] (setting [5]) and 97.6% in assay [4].

Turning to `COc1cc2c(cc1OC)N(C(=O)c1cc3c4c(cc(O)c3[nH]1)N(C(=O)c1cc3cc(OC)c(OC)c(OC)c3[nH]1)C[C@H]4CCl)CC2` [Compound 13], the concentration for half-maximal inhibition (IC50) stood at 0.0166 nM in assay [1] (setting [5]) and 1.79 nM in assay [4]. For the same molecule, the Emax at 0.025 µM in assay [1] (setting [5]) is 99.2%; in assay [4] it was 99.5%.

In the case of `COc1cc2cc(C(=O)N3C[C@@H](CCl)c4c3cc(O)c3ccccc43)[nH]c2c(OC)c1OC` [Compound 38, reference compound], the IC50 in assay [1] (setting [5]) was found to be 0.561 nM; in assay [4], 0.791 nM. The maximal effect (Emax) at 0.025 µM in assay [1] (setting [5]) was determined as 97.4%; in assay [4] it was 99.5%.

With `COc1cc2cc(C(=O)N3C[C@@H](CCl)c4c3cc(O)c3[nH]c(C(=O)N5CCc6ccncc65)cc43)[nH]c2c(OC)c1OC` [Compound 15], the IC50 in assay [2] came to 0.427 nM; in assay [1] (setting [5]), 0.0626 nM; in assay [3] it was 0.41 nM; in assay [4] it was 9.12 nM. The Emax at 0.03 µM in assay [2] was found to be 91.1%; in assay [3], 96.5%. Further, the Emax at 0.025 µM in assay [1] (setting [5]) came to 98.1%; in assay [4] it was 82.4%.

In assay [1] (setting [5]), `COc1cc2cc(C(=O)N3C[C@@H](CCl)c4c3cc(O)c3[nH]c(C(=O)N5CCc6ccccc65)cc43)[nH]c2c(OC)c1OC` [Compound 4, (S)-(8-(chloromethyl)-4-hydroxy-6-(5,6,7-trimethoxy-1H-indole-2-carbonyl)-3,6,7,8-tetrahydropyrrolo[3,2-e]indol-2-yl)(indolin-1-yl)methanone] gave an IC50 of 0.0089 nM and an Emax at 0.025 µM of 99%. For the same molecule, in assay [4], half-maximal inhibition (IC50) required 0.804 nM and the maximal effect (Emax) at 0.025 µM came out at 99.7%.
